What was measured:
[1] = Solubility testing in DMSO, ethanol, water
human tumor xenografts = experiment: Antitumor activity/toxicity in human tumor mouse models (general statements); format: in vivo; settings: example: SCID mice, primary colon 11124 and 14528, weekly×4 (FIG. 15)
Procedure: (§1) Six to 12-week-old female athymic nude mice (nu/nu, body weight 20-25 g) were purchased from Charles River Laboratories International, Inc. (Wilmington, Mass.) or Harlan Sprague Dawley Inc. (Indianapolis, Ind.). Six to 12-week-old female SCID mice were purchased from Roswell Animal facility (DLAR). Mice were housed at 5 mice per cage with water and food ad libitum. All animal experiments are performed in accordance with our IACUC-approved animal protocol.
Human tumor xenografts were initially established by injecting s.c 1×10^6 cultured cancer cells. The xenografts were then passed several generations by transplanting 40-50 mg non-necrotic tumor tissues via a trocar from the passage tumors. […]
(§2) Two axes (mm) of a tumor (L, longest axis; W, shortest axis) were measured with a Vernier caliper. […]
(§3) Antitumor activity was assessed by maximum tumor growth inhibition (MTGI), which is the mean tumor weight difference between treated group (MTWTG) and untreated control group (MTWCG) at the same time. The calculated formula is “MTGI=(MTWTG−MTWCG)÷MTWCG×100%”. […] Tumor response was expressed as 1) partial tumor response (PR) when tumor weight was reduced at least 50% initial tumor size on Day 0 and 2) complete tumor response (CR) which was defined as inability to detect tumor via palpitation at the initial tumor-transplanted site. […]

[2] = system: human HCT-8 colon tumor xenografts; experiment: Antitumor activity in nude mice bearing human HCT-8 colon tumor xenografts; format: in vivo
Procedure: as §1
FL118 was first dissolved in DMSO at a concentration of 1 mg/ml, and further diluted in a fresh Tween-80/saline solution. The final work solution consists of FL118 (0.05 mg/ml), 75% saline (V/V), 20% Tween-80 (V/V) and 5% DMSO (V/V). Control solution (placebo or vehicle) is 75% saline, 20% Tween-80 and 5% DMSO without FL118. Other FDA-approved anticancer drugs used in this invention for a comparison were used clinical formulations from the corresponding manufactures.
(§4) Human tumor xenografts were initially established by injecting s.c 1×10^6 cultured cancer cells. The xenografts were then passed several generations by transplanting 40-50 mg non-necrotic tumor tissues via a trocar from the passage tumors. Human primary tumors were initially obtained from cancer patients at Roswell Park Cancer Institute and established in SCID mice. Human tumor xenografts used in this study include human head & neck squamous cell carcinoma FaDu, human primary head & neck tumor 17073, human ileocecal adenocarcinoma HCT-8, human colon cancer SW620 and human primary colon cancer 11124 and 14528. Treatment was initiated 7 days after tumor transplantation when the tumor reaches 200-250 mg, at which the treatment was designated as Day 0. All cancer cells used for tumor establishment were tested for mycoplasma free. The transplantable tumor has similar histological profile of cultured cells.
The following schedules were used: 1) i.p. daily×2: once a day for consecutive 2 days; 2) i.p. daily×3: once a day for consecutive 3 days; 3) daily×5: once a day for consecutive 5 days (i.p. or p.o.); 4) i.p.×3 (day 0, 2, 4): 3 times on day 0, 2, and 4; 5) i.p. 2 days/week×¾: 2 times a week for 3 or 4 consecutive weeks; 6) weekly×4: once a week for 4 consecutive weeks (i.p. or p.o.); 7) i.p. biweekly×4: once every two weeks for 8 weeks; 8) 2 days/week×4: give 2 times a week for 4 weeks; and 9) i.p.×1: one time drug i.p. injection on Day 0.
Two axes (mm) of a tumor (L, longest axis; W, shortest axis) were measured with a Vernier caliper. Tumor weight (mg) was estimated using a formula of “tumor weight=½ (L×W^2)”. Tumor measurement was taken daily for the first two weeks and/or during the FL118 treatment period (with the exception of weekend) and then three times a week for the following two weeks of post therapy and twice a week thereafter.
Antitumor activity was assessed by maximum tumor growth inhibition (MTGI), which is the mean tumor weight difference between treated group (MTWTG) and untreated control group (MTWCG) at the same time. The calculated formula is “MTGI=(MTWTG−MTWCG)÷MTWCG×100%”. The tumor doubling time (TDT) was defined as the mean time for the tumor reaching twice its initial weight from the time beginning the treatment (Day 0). Tumor response was expressed as 1) partial tumor response (PR) when tumor weight was reduced at least 50% initial tumor size on Day 0 and 2) complete tumor response (CR) which was defined as inability to detect tumor via palpitation at the initial tumor-transplanted site. […]

[3] = system: human FaDu head and neck tumor xenografts; experiment: Antitumor activity in nude mice bearing human FaDu head and neck tumor xenografts; format: in vivo; settings: one-time i.p. injection at about MTD (FIG. 1)
Procedure: as §1
FL118 was first dissolved in DMSO at a concentration of 1 mg/ml, and further diluted in a fresh Tween-80/saline solution. The final work solution consists of FL118 (0.05 mg/ml), 75% saline (V/V), 20% Tween-80 (V/V) and 5% DMSO (V/V). […]
as §2, §3

[4] = irinotecan, stated without source; cited from earlier work
[5] = system: human 17073 primary head & neck xenografts; experiment: Antitumor activity and toxicity in SCID mice bearing human 17073 primary head & neck xenografts; format: in vivo; settings: at MTD
Excerpt: FIG. 2 Comparison of antitumor activity and toxicity (body weight loss) of FL118 with irinotecan in SCID mice bearing human 17073 primary head & neck xenografts: A and B. Antitumor activity and toxicity of FL118 and irinotecan against 17073 tumors. C, D and E. Individual 17073 tumor in response to FL118 and irinotecan. The treatment schedule was weekly×4 as indicated by arrows. The doses for FL118 and irinotecan were their MTD in the weekly×4 schedule.
as §4
Two axes (mm) of a tumor (L, longest axis; W, shortest axis) were measured with a Vernier caliper. Tumor weight (mg) was estimated using a formula of “tumor weight=½ (L×W^2)”. […]
as §3

**Q.** What does the source list for `CCC1(O)C(=O)OCc2c1cc1n(c2=O)Cc2cc3cc4c(cc3nc2-1)OCO4` (racemic) [FL113, 10H,12H-1,3-Dioxolo[4,5-g]pyrano[3′,4′:6,7]indolizino[1,2-b]quinoline-8,11(7H,10H)-dione, 7-ethyl-7-hydroxy-, (+-)]?
**A.** solubility in ethanol [1]: poorly dissolve in ethanol; antitumor activity, comparison of FL118, FL113 and irinotecan (human tumor xenografts): better than irinotecan in most cases

**Q.** What does the source list for `CCc1c2c(nc3ccc(OC(=O)N4CCC(N5CCCCC5)CC4)cc13)-c1cc3c(c(=O)n1C2)COC(=O)[C@]3(O)CC` [Irinotecan, irinotecan]?
**A.** CR ([2]; 100 mg/kg, i.p. weekly × 4): 0%; MTGI ([2]; 100 mg/kg, i.p. weekly × 4): 94.1 ± 3.6%; PR ([2]; 100 mg/kg, i.p. weekly × 4): 60%; TDT ([2]; 100 mg/kg, i.p. weekly × 4): 32.7 ± 11.5 days; antitumor activity compared with FDA-approved drugs ([2]; one-time i.p. injection at about MTD (FIG. 1)): second most effective compound; antitumor activity compared with FDA-approved drugs [3]: second most effective compound; MTD [4]: 100 to 200 mg/kg; body weight loss (toxicity) ([5]; weekly×4): accumulated body weight loss; tumor relapse after complete response ([5]; weekly×4): rapid relapse; mice with complete response ([5]; weekly×4, 5 mice per group): 40%

From patent US9422303B2, “Formulations of water-insoluble chemical compounds and methods of using a formulation of compound FL118 for cancer therapy” (Health Research, Inc., priority 2010, dated 2016)
